Patent US8629102B2, “3-hydroxyisothiazole 1-oxide derivatives” (Mochida Pharmaceutical Co., Ltd., priority 2011, dated 2014)

Molecular target: T1, GPR40 of human origin (Homo sapiens, UniProt O14842)
T1 construct: expressed in transfected cells
Experiment: Agonist action on GPR40 of human origin (intracellular Ca2+ change)
Type: cell-based
Settings: CHO cell strain stably expressing GPR40 of human origin; change in Ca2+ concentration, fluorescent calcium indicator
Method in brief: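 CHO cells stably expressing human GPR40, cultured overnight, then loaded 1 h with Calcium 4 dye plus probenecid in HEPES-buffered HBSS. Compound added in 20 mM HEPES-HBSS; intracellular Ca2+ change read by fluorescence, EC50 from dose-response of fluorescence change.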

T1 sequence (O14842 whole entry): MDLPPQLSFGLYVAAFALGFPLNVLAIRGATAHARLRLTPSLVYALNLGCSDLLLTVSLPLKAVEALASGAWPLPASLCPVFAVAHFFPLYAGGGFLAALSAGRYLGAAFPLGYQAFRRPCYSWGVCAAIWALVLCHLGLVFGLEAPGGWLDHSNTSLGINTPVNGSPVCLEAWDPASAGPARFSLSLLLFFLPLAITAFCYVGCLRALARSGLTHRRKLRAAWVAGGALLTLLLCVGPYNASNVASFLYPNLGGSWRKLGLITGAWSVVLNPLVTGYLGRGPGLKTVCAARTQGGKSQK

| EC50 [nM] | Structure (SMILES) |
| --- | --- |
| < 300 | CS(=O)(=O)CCCOc1ccc(Oc2cccc3c2CC[C@H]3Oc2ccc(-c3cc(O)n[s+]3[O-])cc2)cn1 (stereo partly drawn) [Example 116, 3-hydroxy-5-(4-(((R)-4-((6-(3-(methylsulfonyl)propoxy)pyridin-3-yl)oxy)-2,3-dihydro-1H-inden-1-yl)oxy)phenyl)isothiazole 1-oxide] |
| < 300 | Cc1nc(OCCCS(C)(=O)=O)ccc1Oc1cccc2c1CC[C@H]2Oc1ccc(-c2cc(O)n[s+]2[O-])cc1 (stereo partly drawn) [Example 117, 3-hydroxy-5-(4-(((R)-4-((2-methyl-6-(3-(methylsulfonyl)propoxy)pyridin-3-yl)oxy)-2,3-dihydro-1H-inden-1-yl)oxy)phenyl)isothiazole 1-oxide] |
| < 300 | N#Cc1ccc(Oc2cccc3c2CC[C@H]3Oc2ccc(-c3cc(O)n[s+]3[O-])cc2)nc1 (stereo partly drawn) [Example 118, 6-(((1R)-1-(4-(3-hydroxy-1-oxidoisothiazol-5-yl)phenoxy)-2,3-dihydro-1H-inden-4-yl)oxy)nicotinonitrile] |
| 300 to 3000 | Cc1cccc(C)c1N1CCC(COc2ccc(-c3cc(O)n[s+]3[O-])cc2)C1 (centres unmarked) [Example 121, 5-(4-((1-(2,6-dimethylphenyl)pyrrolidin-3-yl)methoxy)phenyl)-3-hydroxyisothiazole 1-oxide] |
| < 300 | N#Cc1ccc(Oc2cccc(COc3ccc(-c4cc(O)n[s+]4[O-])cc3)c2)cc1 (centres unmarked) [Example 125, 4-(3-((4-(3-hydroxy-1-oxidoisothiazol-5-yl)phenoxy)methyl)phenoxy)benzonitrile] |
| < 300 | COc1cncc(Oc2cccc3c2CC[C@H]3Oc2ccc(-c3cc(O)n[s+]3[O-])cc2)c1 (stereo partly drawn) [Example 127, 3-hydroxy-5-(4-(((R)-4-((3-methoxypyridin-5-yl)oxy)-2,3-dihydro-1H-inden-1-yl)oxy)phenyl)isothiazole 1-oxide] |
| < 300 | NC(=O)c1cccc(Oc2cccc3c2CC[C@H]3Oc2ccc(-c3cc(O)n[s+]3[O-])cc2)c1 (stereo partly drawn) [Example 128, 3-(((1R)-1-(4-(3-hydroxy-1-oxidoisothiazol-5-yl)phenoxy)-2,3-dihydro-1H-inden-4-yl)oxy)benzamide] |

Second part, the molecule before the results:

| Structure (SMILES) | EC50 [nM] |
| --- | --- |
| N#Cc1ccc(Oc2cccc3c2CC[C@H]3Oc2ccc(-c3cc(O)n[s+]3[O-])cc2)cn1 (stereo partly drawn) [Example 119, 5-(((1R)-1-(4-(3-hydroxy-1-oxidoisothiazol-5-yl)phenoxy)-2,3-dihydro-1H-inden-4-yl)oxy)picolinonitrile] | < 300 |
| [O-][s+]1nc(O)cc1-c1ccc(OCC2=CC3(CCCCC3)CCC2)cc1 (centres unmarked) [Example 120, 3-hydroxy-5-(4-(spiro[5.5]undec-1-en-2-ylmethoxy)phenyl)isothiazole 1-oxide] | 300 to 3000 |
| [O-][s+]1nc(O)cc1-c1ccc(OCC2=CC3(CCCC3)CCC2)cc1 (centres unmarked) [Example 122, 3-hydroxy-5-(4-(spiro[4.5]dec-6-en-7-ylmethoxy)phenyl)isothiazole 1-oxide] | < 300 |
| [O-][s+]1nc(O)cc1-c1ccc(OCc2ccc(CN3CCC4(C=Cc5ccccc54)CC3)cc2)cc1 (centres unmarked) [Example 123, 3-hydroxy-5-(4-((4-(spiro[inden-1,4′-piperidin]-1′-ylmethyl)benzyl)oxy)phenyl)isothiazole 1-oxide] | 300 to 3000 |
| CN1CC2(CCN(Cc3ccc(COc4ccc(-c5cc(O)n[s+]5[O-])cc4)cc3)CC2)c2ccccc21 (centres unmarked) [Example 124, 3-hydroxy-5-(4-((4-((1-methylspiro[indolin-3,4′-piperidin]-1′-yl)methyl)benzyl)oxy)phenyl)isothiazole 1-oxide] | 300 to 3000 |
| Cc1ncccc1Oc1cccc2c1CC[C@H]2Oc1ccc(-c2cc(O)n[s+]2[O-])cc1 (stereo partly drawn) [Example 126, 3-hydroxy-5-(4-(((R)-4-((2-methylpyridin-3-yl)oxy)-2,3-dihydro-1H-inden-1-yl)oxy)phenyl)isothiazole 1-oxide] | < 300 |
| NC(=O)c1ccc(Oc2cccc3c2CC[C@H]3Oc2ccc(-c3cc(O)n[s+]3[O-])cc2)cc1 (stereo partly drawn) [Example 129, 4-(((1R)-1-(4-(3-hydroxy-1-oxidoisothiazol-5-yl)phenoxy)-2,3-dihydro-1H-inden-4-yl)oxy)benzamide] | < 300 |
